Data published in patent US9073864B2, “Aromatic ring compound” (TAKEDA PHARMACEUTICAL COMPANY LIMITED, priority 2012, dated 2015).

Columns and labels:
[1] = molecular target: T1, human type glucagon receptor (Homo sapiens, UniProt P47871); experiment: Measurement of glucagon binding inhibitory activity ([125I]-glucagon, receptor membrane protein); conditions: test compound 10 μM; 0.4% DMSO alone = 0%, unlabeled glucagon 1 μM = 100%; read-out: inhibitory rate (%) at 10 μM
T1 construct: an about 1.4 kb DNA fragment containing glucagon receptor gene was recovered from the gel; expressed in transfected cells; host or cells: FreeStyle CHO cells (transient expression); membrane fraction prepared by homogenisation and ultracentrifugation
T1 sequence (P47871 26-477): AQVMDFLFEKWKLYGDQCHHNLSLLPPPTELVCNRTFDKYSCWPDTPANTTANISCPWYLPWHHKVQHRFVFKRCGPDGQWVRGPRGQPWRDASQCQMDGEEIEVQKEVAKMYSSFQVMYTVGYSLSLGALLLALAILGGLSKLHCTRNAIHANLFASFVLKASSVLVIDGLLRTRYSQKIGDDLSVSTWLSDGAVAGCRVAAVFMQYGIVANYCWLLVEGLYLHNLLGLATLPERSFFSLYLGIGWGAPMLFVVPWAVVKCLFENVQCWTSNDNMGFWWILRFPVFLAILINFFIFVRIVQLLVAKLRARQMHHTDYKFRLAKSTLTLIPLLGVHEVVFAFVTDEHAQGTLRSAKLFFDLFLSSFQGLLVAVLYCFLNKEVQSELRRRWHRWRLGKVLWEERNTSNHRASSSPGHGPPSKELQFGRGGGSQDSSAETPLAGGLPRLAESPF
Description: The glucagon binding inhibitory action of the compound of the present invention was evaluated by the following method.
(1) Cloning of Human Glucagon Receptor Gene
Human glucagon receptor gene was cloned by PCR reaction using human pancreas Marathon-ready cDNA (Clontech Laboratories, Inc.) as a template and the following primer set.
The PCR reaction was performed using Advantage 2 polymerase (Clontech Laboratories, Inc.) and according to the attached protocol. The obtained PCR product was subjected to agarose gel (1%) electrophoresis, an about 1.4 kb DNA fragment containing glucagon receptor gene was recovered from the gel, and digested with restriction enzymes EcoRI and NotI. The restriction enzyme-treated DNA was subjected to agarose gel (1%) electrophoresis, an about 1.4 kb DNA fragment was recovered and ligated with plasmid pMSRaneo digested with restriction enzymes EcoRI and NotI to give human type glucagon receptor expression plasmid DNA “pMSRaneo/hGCGR”. The base sequence of the inserted fragment was confirmed to be identical with the object sequence.
(2) Preparation of Glucagon Receptor Membrane Protein
Human type glucagon receptor was expressed using FreeStyle CHO Expression System (Invitrogen™). According to the manual attached to the FreeStyle CHO Expression System, and using the human type glucagon receptor expression plasmid DNA “pMSRaneo/hGCGR” produced in the above-mentioned (1), transient expression was performed by FreeStyle CHO cells. The above-mentioned DNA was transfected, and shaking culture was performed at 37° C., 8% CO2, 125 rpm for 2 days. The culture medium was centrifuged at 2,000 rpm for 10 min and the cells were recovered. The recovered cells were washed with PBS, suspended in homogenate buffer [10 mM NaHCO3 (pH 7.4), 1 mM EDTA, complete EDTA-free (Roche, Ltd., 1 tablet/50 ml)], and the cells were disrupted by a Polytron cell disruption apparatus (Kinematica AG). The disruption solution was centrifuged at 2,000 rpm for 10 min, and the supernatant was recovered. The supernatant was centrifuged at 35,000 rpm for 60 min, and the precipitate was suspended in a buffer [20 mM Tris-HCl (pH 7.4), 5 mM EDTA, complete EDTA-free (Roche, Ltd., 1 tablet/50 ml)] to give a glucagon receptor membrane protein.
(3) Measurement of Glucagon Binding Inhibitory Activity
The reaction was started by adding 50 μl of a glucagon receptor membrane protein solution diluted with a reaction buffer [50 mM HEPES (pH 7.4), 5 mM EGTA, 5 mM magnesium chloride, 0.1% BSA, 0.005% Tween20] to 100 μg/ml, 25 μl of a test compound solution containing 0.4% DMSO, which solution was prepared with the reaction buffer to a compound concentration of 40 μM, and 25 μl of radiolabeled glucagon ([^125I]-Receptor Grade Glucagon; Perkin Elmer Inc.) diluted with the reaction buffer to 200 pM to each well of a 96 well plate (Corning Incorporated). The plate was stood at room temperature for 90 min, then the reaction solution was transferred from the reaction plate onto a 96 well unifilter GF/C plate (Perkin Elmer Inc.) by a cell harvester (Perkin Elmer Inc.), and suctioned to collect a membrane fraction on the filter. The filter was immersed in a 0.3% polyethyleneimine solution in advance to prevent non-specific adsorption of the labeled ligand. The filter was washed 4 times with the reaction buffer, and dried at 42° C. for 2 hr. To each well was added 25 μl of scintillator (MicroScint0; Perkin Elmer Inc.), and the amount of fluorescence was measured by a microplate scintillation counter (TopCount NXT™; Perkin Elmer Inc.).
The inhibitory rate (%) of the well added with the test compound (10 μM; containing 0.4% DMSO solution) was calculated wherein the reaction rate of the well added with 0.4% DMSO alone was 0% inhibitory rate and that of the well added with unlabeled glucagon (final concentration 1 μM) was 100% inhibitory rate.

Wistar fatty rat = experiment: Hypoglycemic action in Wistar fatty rat (single administration); format: in vivo; conditions: 10 mg/kg oral, 4 hr after administration, male Wistar fatty rats, change relative to non-administration group
Description: Hypoglycemic Action in Wistar Fatty Rat (Single Administration)
Wistar fatty rats (male, 25- to 26-week-old) were orally administered with a 0.5% methylcellulose suspension containing a test compound (10 mg/kg body weight) (test compound administration group, 4-6 per group) or 0.5% methylcellulose solution (test compound non-administration group, 4-6 per group), blood samples were collected from the rat tail vein 4 hr after the administration, and the hypoglycemic action was evaluated using the blood. The blood glucose was measured using Model 7180 HITACHI automatic analyzer (Hitachi, Ltd.).
In each animal of the test compound administration group and the test compound non-administration group, changes in the blood glucose level from that before administration was calculated, the difference between the “average change of test compound non-administration group” and the “change in each animal of test compound administration group” was calculated as the “change in blood glucose due to test compound”, and the average of each group was taken as the “blood glucose change value (mg/dL)”.

[2] = system: streptozotocin (STZ)-induced type 1 diabetes model rat; experiment: Suppressive action on hyperglycemia after eating in STZ-induced type 1 diabetes model rat bred with time-limited feeding; format: in vivo; conditions: 10 mg/kg p.o. q.d., detemir 10 U/kg s.c., n=8; for average plasma glucose concentration, 1 hr: 1 hr after administration and start of feeding; for average plasma glucose concentration, 2 hr: 2 hr after administration (immediately before end of feeding); for average plasma glucose concentration, value before administration: next day of 3 days repeated compound administration, immediately before feeding and dosing
Description: Suppressive Action on Hyperglycemia after Eating in Streptozotocin (STZ)-Induced Type 1 Diabetes Model Rat Bred with Time-Limited Feeding
Type 1 diabetes model STZ rat was generated by intravenously administering streptozotocin (STZ: Wako Pure Chemical Industries, Ltd., 65 mg/kg) after overnight fasting. From 1 week after the STZ treatment, time-limited feeding (feeding twice per day for 2 hours each time at 9:00-11:00 am and 16:00-18:00 pm) was started. On day 6 of breeding with time-limited feeding, blood samples were collected immediately before feeding in the morning and after 2 hours of feeding (immediately before end of feeding), and the rats were divided into two groups of detemir (long-acting insulin preparation) treatment group and detemir non-treatment group, with an increase in the plasma glucose concentration associated with the feed intake as an index. In the detemir treatment group, repeated subcutaneous administration of detemir (10 U/kg body weight, Novo Nordisk Pharma Ltd., once per day) was started after the end of feeding in the afternoon, and continued for 7 days until one day before evaluation of the influence of compound administration. Similarly, the detemir non-treatment group was subcutaneously administered repeatedly with saline for 7 days.
The day after repeated administration of detemir for 3 days, blood samples were collected in the same manner as above, and the animals in the detemir treatment group were divided into 3 groups based on an increase in the plasma glucose concentration associated with the feed intake. Each group was orally administered repeatedly with a 0.5% methylcellulose (MC) suspension containing the compound of Example 3 or 21 (10 mg/kg, q.d.) (8 per each group), or 0.5% methylcellulose solution (compound non-administration group, 8) for 4 days before feeding in the morning, starting from the next day of repeated administration of detemir for 4 days.
The next day of repeated administration of detemir for 7 days (the next day of repeated administration of compound for 3 days), blood samples were collected immediately before the start of feeding (and each compound administration) in the morning to obtain values before administration. Also, blood samples were collected after 1 and 2 hours of the administration (immediately before end of feeding), and an influence of compound administration on the profile of plasma glucose concentration after feed intake was evaluated.
Throughout the test, blood samples were collected from the tail vein, and the plasma glucose concentration was measured using Model 7180 HITACHI automatic analyzer.

Structure (SMILES) | inhibition at 10 µM [1] | blood glucose change value (Wistar fatty rat) | average plasma glucose concentration, 1 hr [2] | average plasma glucose concentration, 2 hr [2] | average plasma glucose concentration, value before administration [2]
Cc1cc(-n2cc3c(n2)CCCC3)ccc1C(CCC(F)(F)F)Nc1ccc(C(=O)N2CCC[C@@H](C(=O)O)C2)cc1 (stereo partly drawn) [Example 21, (3R)-1-(4-((4,4,4-trifluoro-1-(2-methyl-4-(4,5,6,7-tetrahydro-2H-indazol-2-yl)phenyl)butyl)amino)benzoyl)piperidine-3-carboxylic acid] | 90% | -136.0 mg/dL | 471.1 mg/dL | 552.0 mg/dL | 435.6 mg/dL
CCc1cnc(-c2ccc(C(CCC(F)(F)F)Nc3ccc(C(=O)N4CCC[C@@H](C(=O)O)C4)cc3)c(C)c2)nc1 (stereo partly drawn) [Example 4, (3R)-1-(4-((1-(4-(5-ethylpyrimidin-2-yl)-2-methylphenyl)-4,4,4-trifluorobutyl)amino)benzoyl)piperidine-3-carboxylic acid] | 95% | -130.4 mg/dL |  |  | 
Cc1cc(-c2ncc(C(F)(F)F)cn2)ccc1C(CCC(F)(F)F)Nc1ccc(C(=O)N2CCC[C@@H](C(=O)O)C2)cc1 (stereo partly drawn) [Example 3, (3R)-1-(4-((4,4,4-trifluoro-1-(2-methyl-4-(5-(trifluoromethyl)pyrimidin-2-yl)phenyl)butyl)amino)benzoyl)piperidine-3-carboxylic acid] | 91% | -142.5 mg/dL | 463.6 mg/dL | 555.2 mg/dL | 397.0 mg/dL
Cc1cc(-c2ccc(C(F)(F)F)cn2)ccc1C(CCC(F)(F)F)Nc1ccc(C(=O)N2CCC[C@@H](C(=O)O)C2)cc1 (stereo partly drawn) [Example 1, (3R)-1-(4-((4,4,4-trifluoro-1-(2-methyl-4-(5-(trifluoromethyl)pyridin-2-yl)phenyl)butyl)amino)benzoyl)piperidine-3-carboxylic acid] | 84% | -162.9 mg/dL |  |  | 
Cc1cc(-c2ncc(Cl)cn2)ccc1C(CCC(F)(F)F)Nc1ccc(C(=O)N2CCC[C@@H](C(=O)O)C2)cc1 (stereo partly drawn) [Example 2, (3R)-1-(4-((1-(4-(5-chloropyrimidin-2-yl)-2-methylphenyl)-4,4,4-trifluorobutyl)amino)benzoyl)piperidine-3-carboxylic acid] | 92% | -149.8 mg/dL |  |  | 
Cc1cc(-c2ccc(Cl)cc2)ccc1C(Nc1ccc(C(=O)N2CCC[C@@H](C(=O)O)C2)cc1)C1CCCCC1 (stereo partly drawn) [Example 16, (3R)-1-(4-(((4′-chloro-3-methylbiphenyl-4-yl)(cyclohexyl)methyl)amino)benzoyl)piperidine-3-carboxylic acid] | 93% |  |  |  | 

Second part, led by results:

inhibition at 10 µM [1] | Structure (SMILES) | blood glucose change value (Wistar fatty rat) | average plasma glucose concentration, 1 hr [2] | average plasma glucose concentration, 2 hr [2] | average plasma glucose concentration, value before administration [2]
88% | Cc1cc(-c2ccc(C(F)(F)F)cn2)ccc1C(Nc1ccc(C(=O)N2CCC[C@@H](C(=O)O)C2)cc1)C(C)C (stereo partly drawn) [Example 26, (3R)-1-(4-((2-methyl-1-(2-methyl-4-(5-(trifluoromethyl)pyridin-2-yl)phenyl)propyl)amino)benzoyl)piperidine-3-carboxylic acid] |  |  |  | 
98% | O=C(O)[C@@H]1CCCN(C(=O)c2ccc(NC(CCC(F)(F)F)c3ccc(-c4ccc(Cl)cc4)cc3)nc2)C1 (stereo partly drawn) [Example 28, (3R)-1-((6-((1-(4′-chlorobiphenyl-4-yl)-4,4,4-trifluorobutyl)amino)pyridin-3-yl)carbonyl)piperidine-3-carboxylic acid] |  |  |  | 
86% | O=C(O)[C@@H]1CCCN(C(=O)c2ccc(NC(CCC(F)(F)F)c3ccc(-c4ccc(Cl)cc4)cc3)cc2)C1 (stereo partly drawn) [Example 27, (3R)-1-(4-((1-(4′-chlorobiphenyl-4-yl)-4,4,4-trifluorobutyl)amino)benzoyl)piperidine-3-carboxylic acid] |  |  |  | 
90% | Cc1cc(-c2ncc(C(C)(C)C)o2)ccc1C(CCC(F)(F)F)Nc1ccc(C(=O)N2CCC[C@@H](C(=O)O)C2)cc1 (stereo partly drawn) [Example 23, (3R)-1-(4-((1-(4-(5-tert-butyl-1,3-oxazol-2-yl)-2-methylphenyl)-4,4,4-trifluorobutyl)amino)benzoyl)piperidine-3-carboxylic acid] |  |  |  | 
